Measured values reported in patent EP3057951B1, “METHYLENE LINKED QUINOLINYL MODULATORS OF ROR-GAMMA-T” (Janssen Pharmaceutica NV, priority 2013, dated 2015).
Values joined by “and” are separate entries in the source; they are usually repeats but may differ in a detail not shown here. Identical values can stand only once. Counter-ions that a name gives are not always drawn. Like-named read-outs stand apart in the source and are kept apart here.

Tests used:
[1] = target: T1, wild type human RORγt ligand binding domain (RORyt LBD) (Homo sapiens, UniProt P51449); test: RORγt ThermoFluor assay (thermal shift, binding affinity KD)
T1 construct: His-tag (N); TurboTEV protease cleavage site (ENLYFQG) (N); made in house; host or cells: E. coli (pHIS1, modified pET vector)
T1 sequence (P51449 258-518): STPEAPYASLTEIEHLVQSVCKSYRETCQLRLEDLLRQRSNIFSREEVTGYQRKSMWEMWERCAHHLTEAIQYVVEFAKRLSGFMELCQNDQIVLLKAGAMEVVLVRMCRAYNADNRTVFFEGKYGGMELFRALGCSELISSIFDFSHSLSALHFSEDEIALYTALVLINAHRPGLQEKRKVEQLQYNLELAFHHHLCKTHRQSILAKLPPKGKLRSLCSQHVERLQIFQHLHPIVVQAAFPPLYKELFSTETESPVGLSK

[2] = target: T2, wild type human RORγt LBD (Homo sapiens, UniProt P51449); test: RORγt (LBD) Reporter Assay (GAL4-luciferase, HEK293T cells); assay type: cell-based; settings: for RORγt (LBD) Reporter Assay, % inhibition @ 6 µM: 6 µM compound concentration; for inhibition at 6 µM: HEK-293T, read-out: RORγt (LBD) Reporter Assay, % inhibition @ 6 µM, 6 µM compound concentration
T2 construct: expressed in transfected cells; host or cells: HEK293T
T2 sequence (P51449 258-518): T1 sequence (P51449 258-518)

[3] = HEK293T cells, value after the comma with ∼, > or < could not be included in the average

| SMILES | Kd [1] [nM] | RORγt (LBD) Reporter Assay, % inhibition @ 6 µM [2] [%] | IC50 [2, 3] | inhibition at 6 µM [2] [%] | RORγt (LBD) Reporter Assay, % inhibition @ 6 µM ([2]; HEK293T cells) [%] | IC50 ([2]; HEK293T cells) [nM] | inhibition at 6 µM ([2]; HEK293T cells) [%] |
| --- | --- | --- | --- | --- | --- | --- | --- |
| COc1nc2ccc(C(O)(c3ccc(C#N)cc3)c3cncn3C)cc2c(Cl)c1Cc1ccc(C(F)(F)F)nc1 (single isomer, unassigned) [Example 38c, 4-((4-Chloro-2-methoxy-3-((6-(trifluoromethyl)pyridin-3-yl)methyl)quinolin-6-yl)(hydroxy)(1-methyl-1H-imidazol-5-yl)methyl)benzonitrile] | 5.2 | 98 | 14 nM |  |  |  |  |
| COc1nc2ccc(C(O)(c3ccc(C)nc3C)c3cnnn3C)cc2c(Cl)c1Cc1ccc(C)cc1 (single isomer, unassigned) [Example 20c, (4-Chloro-2-methoxy-3-(4-methylbenzyl)quinolin-6-yl)(2,6-dimethylpyridin-3-yl)(1-methyl-1H-1,2,3-triazol-5-yl)methanol] | 0.62 | 93 | 57 nM and ~30 nM |  |  |  |  |
| Cn1cncc1C(O)(c1ccc2nc(C(F)(F)F)c(Cc3ccccc3)c(C#N)c2c1)c1ccccn1 (single isomer, unassigned) [Example 99c, 3-Benzyl-6-(hydroxy(1-methyl-1H-imidazol-5-yl)(pyridin-2-yl)methyl)-2-(trifluoromethyl)quinoline-4-carbonitrile] | 12 | 97 | 20 nM |  |  |  |  |
| COc1nc2ccc(C(O)(c3ccccc3)C3CCN(C(C)=O)CC3)cc2c(Cl)c1Cc1ccc(-n2ccnc2)cc1 (stereo not drawn) [Example 16a, 1-(4-((3-(4-(1H-Imidazol-1-yl)benzyl)4-chloro-2-metboxyquinolin-6-yl)(hydroxy)(phenyl)methyl)piperidin-1-yl)ethanone] | 8.4 |  | 9.8 nM | 101 |  |  |  |
| COc1nc2ccc(C(O)(c3cnnn3C)c3cnc(C)n3C)cc2c(Cl)c1Cc1ccc(F)cc1 (racemic) [Example 65a] | 0.19 |  | 9.9 nM | 74 |  |  |  |
| COc1nc2ccc(C(O)(c3ccccc3)C3CCN(C(C)=O)CC3)cc2c(Cl)c1Cc1ccc(-n2ccnc2)cc1 (stereo not drawn) [Example 16c] | 4.6 | 100 | 20 nM |  |  |  |  |
| COc1nc2ccc(C(O)(c3ccc(C)nc3C)c3cnnn3C)cc2c(Cl)c1Cc1ccc(N(C)C)cc1 (single isomer, unassigned) [Example 24b, (4-Chloro-3-(4-(dimethylamino)benzyl)-2-methoxyquinolin-6-yl)(2,6-dimethylpyridin-3-yl)(1-methyl-1H-1,2,3-triazol-5-yl)methanol] | 130 |  | ~220 nM | 92 |  |  |  |
| COc1nc2ccc(C(O)(c3ccc(F)cc3)c3cncn3C)cc2c(Cl)c1Cc1ccc(-n2cccn2)cc1 (single isomer, unassigned) [Example 160c, (3-(4-(1H-Pyrazol-1-yl)benzyl)-4-chloro-2-methoxyquinolin-6-yl)(4-fluorophenyl)(1-methyl-1H-imidazol-5-yl)methanol] | 12 |  |  |  | 98 | 47 |  |
| COc1c(Cc2ccccc2)c(C(F)(F)F)nc2ccc(C(O)(c3ccc(C(F)(F)F)nc3)c3cncn3C)cc12 (single isomer, unassigned) [Example 106b, (3-Benzyl-4-methoxy-2-(trifluoromethyl)quinolin-6-yl)(1-methyl-1H-imidazol-5-yl)(6-(trifluoromethyl)pyridin-3-yl)methanol] | 110 | 94 | 670 nM |  |  |  |  |
| Cc1ccc(C(O)(c2ccc3nc(Cl)c(Cc4ccc(C(F)(F)F)cc4)c(Cl)c3c2)c2cnnn2C)c(C)n1 (stereo not drawn) [Example 139] | 0.14 |  |  |  |  | 20 | 98 |
| Cc1ccc(C(O)(c2ccc3nc(C)c(Cc4ccc(C(F)(F)F)cc4)c(Cl)c3c2)c2cnnn2C)c(C)n1 (stereo not drawn) [Example 28a, (4-Chloro-2-methyl-3-(4-(trifluoromethyl)benzyl)quinolin-6-yl)(2,6-dimethylpyridin-3-yl)(1-methyl-1H-1,2,3-triazol-5-yl)methanol] | 0.25 |  | 11 nM | 99 |  |  |  |
| COc1nc2ccc(C(O)(c3ccc(C#N)cc3)c3cncn3C)cc2c(C#N)c1Cc1ccc(-n2cncn2)cc1 (single isomer, unassigned) [Example 15b, 3-(4-(1H-1,2,4-Triazol-1-yl)benzyl)-6-((4-cyanophenyl)(hydroxy)(1-methyl-1H-imidazol-5-yl)methyl)-2-methoxyquinoline-4-carbonitrile] | 140 |  | 410 nM | 99 |  |  |  |
| CCc1nc2ccc(C(O)(c3ccc(C)nc3C)c3cnnn3C)cc2c(Cl)c1Cc1ccc(C(F)(F)F)cc1 (single isomer, unassigned) [Example 23b, (4-Chloro-2-ethyl-3-(4-(trifluoromethyl)benzyl)quinolin-6-yl)(2,6-dimethylpyridin-3-yl)(1-methyl-1H-1,2,3-triazol-5-yl)methanol] | 82 |  | 200 nM | 94 |  |  |  |
| Cn1cncc1C(O)(c1ccc2nc(C(F)(F)F)c(Cc3ccccc3)c(C#N)c2c1)c1ccccn1 (racemic) [Example 99a, 3-Benzyl-6-(hydroxy(1-methyl-1H-imidazol-5-yl)(pyridin-2-yl)methyl)-2-(trifluoromethyl)quinoline-4-carbonitrile•TFA] | 20 |  | 97 nM | 93 |  |  |  |
| Cc1ccc(C(O)(c2ccc3nc(N4CCC4)c(Cc4ccc(C(F)(F)F)cc4)c(Cl)c3c2)c2cnnn2C)c(C)n1 (stereo not drawn) [Example 140a, {2-Azetidin-1-yl-4-chloro-3-[4-(trifluoromethyl)benzyl]quinolin-6-yl}(2,6-dimethylpyridin-3-yl)(1-methyl-1H-1,2,3-triazol-5-yl)methanol] | 0.19 |  |  |  |  | 22 | 99 |
| COc1c(Cc2ccccc2)c(C(F)(F)F)nc2ccc(C(O)(c3ccccn3)c3cncn3C)cc12 (single isomer, unassigned) [Example 98b, (3-Benzyl-4-methoxy-2-(trifluoromethyl)quinolin-6-yl)(1-methyl-1H-imidazol-5-yl)(pyridin-2-yl)methanol] | 2200 | 74 | ~5000 nM |  |  |  |  |
| Cc1cc(C(O)(c2ccc(C(F)(F)F)nc2)c2cncn2C)cc2c(Cl)c(Cc3ccc(-n4cccn4)cc3)c(N3CCC3)nc12 (stereo not drawn) [Example 137a, {2-Azetidin-1-yl-4-chloro-8-methyl-3-[4-(1H-pyrazol-1-yl)benzyl]quinolin-6-yl}(1-methyl-1H-imidazol-5-yl)[6-(trifluoromethyl)pyridin-3-yl]methanol] | 9 |  |  |  |  | 170 | 97 |
| Cc1ccc(C(O)(c2ccc3nc(NC4CC4)c(Cc4ccc(C(F)(F)F)cc4)c(Cl)c3c2)c2cnnn2C)c(C)n1 (single isomer, unassigned) [Example 143b, {4-Chloro-2-(cyclopropylamino)-3-[4-(trifluoromethyl)benzyl]quinolin-6-yl}(2,6-dimethylpyridin-3-yl)(1-methyl-1H-1,2,3-triazol-5-yl)methanol] | 1700 |  |  |  |  | 1600 | 93 |
